Consider 1 molecule from PMC8455565 (Scientific Reports, 2021).

Where only a bound is given, the exact number is not on record here.

One assay concerns the target BTK (Homo sapiens, UniProt Q06187). Nature of the assay: BTK kinase activity, Z'-LYTE FRET biochemical assay. Set-up: purchased Thermo Fisher Scientific PV3363. The conditions noted are these: mean ± S.D; read-out: IC50, hBTK biochemical assay. The protocol: The kinase activity of BTK was measured using the Z′-LYTE assay based on fluorescence resonance energy transfer (FRET). […] Briefly, BTK, peptide, ATP and inhibitor mixtures were incubated for 1 h at room temperature. Then, Development Reagent A was added to each well, and incubation proceeded for another 1 h. […] The data were analyzed by GraphPad Prism 6 (GraphPad Software, CA, USA) to determine the IC50 values.

In the next assay the test system is CTLL-2. Nature of the assay: IL-2 induced T cell proliferation in CTLL-2. Format: cell-based. The conditions noted are these: Mus musculus, cellular level.
The target of the next assay is T1, JAK3 (Homo sapiens, UniProt P52333).
T1 sequence (P52333 1-1124): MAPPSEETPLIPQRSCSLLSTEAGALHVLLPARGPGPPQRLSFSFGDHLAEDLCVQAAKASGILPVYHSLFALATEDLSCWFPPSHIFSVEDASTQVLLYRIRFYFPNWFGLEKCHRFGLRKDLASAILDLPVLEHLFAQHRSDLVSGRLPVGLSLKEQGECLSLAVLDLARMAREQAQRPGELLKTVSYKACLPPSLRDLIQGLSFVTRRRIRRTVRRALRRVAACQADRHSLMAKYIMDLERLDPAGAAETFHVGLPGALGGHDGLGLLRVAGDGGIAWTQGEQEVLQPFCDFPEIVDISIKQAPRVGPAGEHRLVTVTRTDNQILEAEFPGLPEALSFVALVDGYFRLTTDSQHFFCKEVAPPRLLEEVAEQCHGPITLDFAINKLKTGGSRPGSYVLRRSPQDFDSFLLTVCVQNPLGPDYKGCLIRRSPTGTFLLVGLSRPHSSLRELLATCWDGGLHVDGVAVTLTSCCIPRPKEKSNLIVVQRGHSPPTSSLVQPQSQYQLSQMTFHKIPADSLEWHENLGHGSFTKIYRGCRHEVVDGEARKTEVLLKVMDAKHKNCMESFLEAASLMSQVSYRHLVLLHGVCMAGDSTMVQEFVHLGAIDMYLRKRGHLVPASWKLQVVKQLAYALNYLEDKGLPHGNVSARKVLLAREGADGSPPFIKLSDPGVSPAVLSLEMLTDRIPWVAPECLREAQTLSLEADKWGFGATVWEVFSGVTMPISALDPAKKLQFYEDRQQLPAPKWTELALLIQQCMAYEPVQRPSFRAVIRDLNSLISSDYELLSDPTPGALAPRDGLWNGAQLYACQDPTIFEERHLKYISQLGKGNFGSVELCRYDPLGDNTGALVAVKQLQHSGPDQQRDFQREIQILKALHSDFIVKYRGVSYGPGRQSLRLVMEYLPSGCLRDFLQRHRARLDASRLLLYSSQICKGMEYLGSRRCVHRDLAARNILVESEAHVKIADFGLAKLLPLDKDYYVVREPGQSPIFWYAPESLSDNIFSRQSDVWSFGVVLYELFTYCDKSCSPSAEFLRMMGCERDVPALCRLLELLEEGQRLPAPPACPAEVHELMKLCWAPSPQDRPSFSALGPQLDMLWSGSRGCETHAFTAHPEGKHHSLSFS
The assay can be described thus: Kinase selectivity biochemical assay, JAK3.

A further assay addresses T2, BMX (Homo sapiens, UniProt P51813).
T2 sequence (P51813 1-675): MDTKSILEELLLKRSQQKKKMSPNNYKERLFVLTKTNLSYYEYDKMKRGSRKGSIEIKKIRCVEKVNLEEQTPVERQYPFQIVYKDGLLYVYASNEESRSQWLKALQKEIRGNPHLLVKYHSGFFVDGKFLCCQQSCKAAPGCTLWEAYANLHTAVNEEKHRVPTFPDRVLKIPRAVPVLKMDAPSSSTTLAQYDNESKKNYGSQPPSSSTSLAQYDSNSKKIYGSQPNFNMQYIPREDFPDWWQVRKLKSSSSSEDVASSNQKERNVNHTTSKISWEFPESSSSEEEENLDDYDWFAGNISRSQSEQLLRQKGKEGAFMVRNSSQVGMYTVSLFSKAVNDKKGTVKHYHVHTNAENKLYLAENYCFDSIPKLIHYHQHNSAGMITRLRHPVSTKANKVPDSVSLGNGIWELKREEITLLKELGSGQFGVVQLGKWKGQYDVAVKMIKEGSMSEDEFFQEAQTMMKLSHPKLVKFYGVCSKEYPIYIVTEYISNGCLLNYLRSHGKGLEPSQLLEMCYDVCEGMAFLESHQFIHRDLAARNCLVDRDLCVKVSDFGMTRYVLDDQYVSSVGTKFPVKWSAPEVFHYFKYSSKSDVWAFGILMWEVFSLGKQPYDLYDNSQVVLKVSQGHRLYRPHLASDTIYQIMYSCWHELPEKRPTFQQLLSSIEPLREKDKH
The assay can be described thus: Kinase selectivity biochemical assay (FRET), BMX.

Sequence of BTK (Q06187 whole entry): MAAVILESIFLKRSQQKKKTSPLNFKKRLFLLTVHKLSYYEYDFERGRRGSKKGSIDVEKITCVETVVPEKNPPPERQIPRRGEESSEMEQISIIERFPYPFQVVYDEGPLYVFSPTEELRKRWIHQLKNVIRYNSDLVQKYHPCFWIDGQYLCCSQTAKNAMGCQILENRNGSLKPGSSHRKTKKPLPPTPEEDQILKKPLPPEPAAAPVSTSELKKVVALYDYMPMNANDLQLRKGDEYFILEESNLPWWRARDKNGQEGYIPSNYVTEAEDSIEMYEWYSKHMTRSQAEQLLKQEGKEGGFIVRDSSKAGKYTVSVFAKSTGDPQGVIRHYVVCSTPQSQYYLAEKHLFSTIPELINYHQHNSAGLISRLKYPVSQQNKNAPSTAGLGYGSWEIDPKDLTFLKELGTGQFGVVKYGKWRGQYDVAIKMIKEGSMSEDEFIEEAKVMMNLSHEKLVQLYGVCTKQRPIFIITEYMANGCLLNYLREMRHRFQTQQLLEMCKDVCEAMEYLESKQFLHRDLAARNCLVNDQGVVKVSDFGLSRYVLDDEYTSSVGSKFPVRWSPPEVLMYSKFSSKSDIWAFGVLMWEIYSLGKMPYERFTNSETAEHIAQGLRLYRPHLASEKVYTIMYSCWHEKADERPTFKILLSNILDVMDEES

The term IC50 denotes the point on the concentration scale where inhibition reaches its midpoint. As to `C=CC(=O)Nc1cccc(Oc2nc(Nc3ccc(N4CCN(C)CC4)cc3)nc3ccoc23)c1` [Poseltinib], the IC50 on BTK is 4 nM; in the assay on CTLL-2, more than 500 nM; on BMX, less than 10 nM. Also, the “selectivity toward BTK over JAK3” value on JAK3 worked out at 7.5 ×.
